Compound in one assay: C=CCn1c(=O)c2cnc(Nc3ccc(N4CCN(C)CC4)cc3)nc2n1-c1cccc(C(C)(C)O)n1 [MK-1775]
Nature of the assay: surviving fraction relative to DMSO-only wells; higher = less growth inhibition. The conditions noted are these: exposure time: 5 days. A digest of the protocol:
(§1)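 Continuous five-day exposure to inhibitors at 0.5, 1, 5, 10, 50, 100, 500 and 1000 nM started 24 hours after log-phase tumour cell lines were seeded at 250–500 cells per well in 384-well plates. Luminescence was read after 10 minutes at room temperature. Viability is given as surviving fraction, meaning CellTiter-Glo luminescence normalised to the median of DMSO-only wells.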

Compound in another assay: Cc1ccc(NC(=O)c2ccc(CN3CCN(C)CC3)cc2)cc1Nc1nccc(-c2cccnc2)n1 [IMATINIB]
The assay is described as above. To be noted: exposure time: 5 days. The essentials:
as §1

± gives the standard deviation of the averaged measurements.

U2OS BONE: the surviving fraction in the assay with MK-1775 (0.5 nM) is 1.03 ± 0.028; with MK-1775 (1 nM) it was 0.991 ± 0.043; with MK-1775 (5 nM), 1.07 ± 0.032; with MK-1775 (10 nM), 1.07 ± 0.034; in the assay with MK-1775 (50 nM), 0.922 ± 0.039; with MK-1775 (100 nM), 0.641 ± 0.028. The surviving fraction with MK-1775 (500 nM) is 0.133 ± 0.002; in the assay with MK-1775 (1000 nM), 0.0693 ± 0.0045; with IMATINIB (0.5 nM), 1.06 ± 0.021; in the assay with IMATINIB (1 nM), 1.02 ± 0.033; with IMATINIB (5 nM), 1.07 ± 0.028; with IMATINIB (10 nM) it was 1.05 ± 0.028. Also, the surviving fraction was found to be 1.09 ± 0.026 with IMATINIB (50 nM), 1.113 ± 0.0058 in the assay with IMATINIB (100 nM), 1.15 ± 0.027 with IMATINIB (500 nM) and 1.15 ± 0.018 with IMATINIB (1000 nM).

On to 22RV1 PROSTATE, for which the surviving fraction came out at 1.01 ± 0.03 with MK-1775 (0.5 nM); 1.01 ± 0.066 with MK-1775 (1 nM); 0.972 ± 0.051 in the assay with MK-1775 (5 nM); 1 ± 0.021 in the assay with MK-1775 (10 nM); 1.03 ± 0.033 with MK-1775 (50 nM); 0.877 ± 0.083 with MK-1775 (100 nM). For the same test system, the surviving fraction with MK-1775 (500 nM) came to 0.608 ± 0.028; with MK-1775 (1000 nM), 0.263 ± 0.039; in the assay with IMATINIB (0.5 nM), 1.06 ± 0.068; in the assay with IMATINIB (1 nM) it was 1.08 ± 0.019; in the assay with IMATINIB (5 nM), 1 ± 0.1; with IMATINIB (10 nM), 1.05 ± 0.046. In addition, the surviving fraction in the assay with IMATINIB (500 nM) stood at 1.14 ± 0.14.

For the test system HCC1954 BREAST, the surviving fraction in the assay with MK-1775 (0.5 nM) amounted to 0.762 ± 0.1; with MK-1775 (1 nM), 0.775 ± 0.012; with MK-1775 (5 nM) it was 1.08 ± 0.13; with MK-1775 (10 nM), 0.8722 ± 0.0025; in the assay with MK-1775 (50 nM), 0.719 ± 0.017; in the assay with MK-1775 (100 nM), 0.625 ± 0.0078. The surviving fraction with MK-1775 (500 nM) was determined as 0.203 ± 0.013; with MK-1775 (1000 nM), 0.102 ± 0.0042; with IMATINIB (0.5 nM), 1.2 ± 0.15; in the assay with IMATINIB (1 nM), 1.28 ± 0.091; with IMATINIB (5 nM), 1.23 ± 0.12; in the assay with IMATINIB (10 nM), 1.27 ± 0.045. The surviving fraction in the assay with IMATINIB (50 nM) amounted to 0.9283 ± 0.006; with IMATINIB (100 nM) it was 0.887 ± 0.025; with IMATINIB (500 nM) it was 1.07 ± 0.1; in the assay with IMATINIB (1000 nM), 1 ± 0.0071.

For the test system HCC202 BREAST, the surviving fraction came out at 1.137 ± 0.0059 with MK-1775 (0.5 nM); 1.13 ± 0.2 with MK-1775 (1 nM); 1.01 ± 0.21 with MK-1775 (5 nM); 0.991 ± 0.061 with MK-1775 (10 nM); 0.908 ± 0.17 with MK-1775 (50 nM); 0.712 ± 0.22 in the assay with MK-1775 (100 nM). Further, the surviving fraction in the assay with MK-1775 (500 nM) came to 0.347 ± 0.08; with MK-1775 (1000 nM), 0.361 ± 0.075; in the assay with IMATINIB (0.5 nM) it was 1.44 ± 0.69; in the assay with IMATINIB (1 nM), 0.908 ± 0.013; with IMATINIB (5 nM), 1.28 ± 0.18; with IMATINIB (50 nM), 1.11 ± 0.34. Besides, the surviving fraction is 1.32 ± 0.45 with IMATINIB (100 nM), 1.3 ± 0.15 in the assay with IMATINIB (500 nM) and 1.39 ± 0.35 with IMATINIB (1000 nM).

Regarding SCC90 HEADNECK, the surviving fraction in the assay with MK-1775 (0.5 nM) stood at 1.25 ± 0.31; with MK-1775 (1 nM) it was 1.2 ± 0.16; in the assay with MK-1775 (5 nM), 1.07 ± 0.078; with MK-1775 (10 nM), 1.12 ± 0.25; with MK-1775 (50 nM), 0.704 ± 0.034; in the assay with MK-1775 (100 nM) it was 0.355 ± 0.017. Besides, the surviving fraction with MK-1775 (500 nM) was determined as 0.0583 ± 0.0068; with MK-1775 (1000 nM), 0.0493 ± 0.011; with IMATINIB (5 nM) it was 1.07 ± 0.011; in the assay with IMATINIB (10 nM), 1.01 ± 0.073; in the assay with IMATINIB (50 nM), 1.17 ± 0.076; with IMATINIB (100 nM) it was 1.14 ± 0.08. The figures for the surviving fraction in the assay with IMATINIB (500 nM) and with IMATINIB (1000 nM) were 1.17 ± 0.067 and 1.26 ± 0.082, respectively.

Regarding NOS1 BONE, the surviving fraction with MK-1775 (0.5 nM) stood at 0.939 ± 0.1; with MK-1775 (1 nM), 1.08 ± 0.028; with MK-1775 (5 nM) it was 0.945 ± 0.02; in the assay with MK-1775 (10 nM), 0.764 ± 0.039; with MK-1775 (50 nM) it was 0.209 ± 0.011; with MK-1775 (100 nM), 0.158 ± 0.02. The surviving fraction with MK-1775 (500 nM) turned out to be 0.223 ± 0.029; with MK-1775 (1000 nM), 0.206 ± 0.036; with IMATINIB (0.5 nM), 1.18 ± 0.11; with IMATINIB (1 nM) it was 1.12 ± 0.041; with IMATINIB (5 nM) it was 1.2 ± 0.085; in the assay with IMATINIB (10 nM), 1.13 ± 0.11. The surviving fraction worked out at 1.06 ± 0.15 with IMATINIB (100 nM), 0.883 ± 0.14 with IMATINIB (500 nM) and 0.898 ± 0.039 with IMATINIB (1000 nM).

As for OS25HAL BONE, the surviving fraction was 0.9753 ± 0.0045 with MK-1775 (0.5 nM); 0.9973 ± 0.0092 with MK-1775 (1 nM); 1.03 ± 0.019 with MK-1775 (5 nM); 1.02 ± 0.025 with MK-1775 (10 nM); 0.973 ± 0.042 with MK-1775 (50 nM); 0.554 ± 0.026 with MK-1775 (100 nM). Further, the surviving fraction in the assay with MK-1775 (500 nM) came out at 0.0463 ± 0.0032; in the assay with MK-1775 (1000 nM), 0.0417 ± 0.0025; in the assay with IMATINIB (0.5 nM), 1.08 ± 0.041; with IMATINIB (1 nM), 1.04 ± 0.035; with IMATINIB (5 nM), 1.03 ± 0.021; with IMATINIB (10 nM) it was 1.06 ± 0.027. The surviving fraction with IMATINIB (50 nM) stood at 1.08 ± 0.013; with IMATINIB (100 nM) it was 1.1 ± 0.017.

SCC47 HEADNECK: the surviving fraction with MK-1775 (0.5 nM) is 1.01 ± 0.031; with MK-1775 (1 nM), 1.06 ± 0.025; in the assay with MK-1775 (5 nM), 1.11 ± 0.051; in the assay with MK-1775 (10 nM), 1.11 ± 0.08; with MK-1775 (50 nM), 0.992 ± 0.053; in the assay with MK-1775 (100 nM), 0.713 ± 0.047. In addition, the surviving fraction was 0.238 ± 0.025 with MK-1775 (500 nM); 0.159 ± 0.014 in the assay with MK-1775 (1000 nM); 1.12 ± 0.017 in the assay with IMATINIB (0.5 nM); 1.2 ± 0.065 with IMATINIB (1 nM); 1.18 ± 0.072 with IMATINIB (5 nM); 1.19 ± 0.013 with IMATINIB (10 nM). Moreover, the surviving fraction is 1.19 ± 0.025 with IMATINIB (50 nM), 1.25 ± 0.1 with IMATINIB (100 nM), 1.22 ± 0.11 with IMATINIB (500 nM) and 1.21 ± 0.028 with IMATINIB (1000 nM).

Turning to BT549 BREAST, the surviving fraction with MK-1775 (0.5 nM) worked out at 1.15 ± 0.1; with MK-1775 (1 nM), 1.11 ± 0.13; in the assay with MK-1775 (5 nM), 1.09 ± 0.089; with MK-1775 (10 nM) it was 1.04 ± 0.089; in the assay with MK-1775 (50 nM), 0.783 ± 0.038; with MK-1775 (100 nM) it was 0.427 ± 0.011. Further, the surviving fraction in the assay with MK-1775 (500 nM) amounted to 0.0453 ± 0.0057; in the assay with MK-1775 (1000 nM), 0.0453 ± 0.0032; with IMATINIB (0.5 nM), 1.15 ± 0.1; in the assay with IMATINIB (1 nM), 1.13 ± 0.068; with IMATINIB (10 nM), 1.12 ± 0.044; in the assay with IMATINIB (100 nM), 1.17 ± 0.04. Further, the surviving fraction with IMATINIB (500 nM) was 1.21 ± 0.11; with IMATINIB (1000 nM) it was 1.1 ± 0.15.

The record behind these values is the supplement of paper PMC6045584.
